Experiment [1] relates to L. mexicana axenic amastigotes. Nature of the experiment: Initial screen, L. mexicana axenic amastigotes, Alamar Blue. Format: cell-based, Leishmania mexicana. To be noted: for activity at 2 µM: Leishmania mexicana; for decrease of L. mexicana survival: 2 μM, 72 h. The procedure:
(§1) 634 compounds from the PhytoQuest Phytopure temperate plant natural product library were screened for growth inhibitory activity against L. mexicana axenic amastigotes, T. brucei bloodstream form, intraerythrocytic asexual P. falciparum (at 2 μM) and T. evansi bloodstream form parasites (at 1 μM). […] Our initial hits were defined as reducing growth of the parasite by ≥50%. […]
(§2) The PhytoQuest Phytopure library is a commercially available collection of purified compounds isolated predominantly from temperate zone plants, with structures confirmed by NMR and mass spectrometry. The library was provided as 634 non-polar compounds (1 mg/mL in DMSO). Initial screening was performed in a 96-well plate with 200 μL of parasite culture. The initial screen used each compound at a final concentration of 2 μM for L. mexicana axenic amastigotes, T. brucei and P. falciparum, and at 1 μM for T. evansi. L. mexicana axenic amastigotes were plated at 1 × 10^6 cells/mL, incubated for 72 h, and the Alamar Blue assay was used to assess parasite growth. Each compound was tested in triplicate, with two biological replicates (n = 6). T. brucei and T. evansi were plated at 1×10^5 cells/mL for 48 h, and the Alamar Blue assay was used to assess parasite growth. Each compound was tested in triplicate with two biological replicates (n = 6). Intraerythrocytic P. falciparum in the trophozoite stage were seeded at 0.5% parasitaemia and 2% haematocrit for 48 h, and the Malaria SYBR-Green I fluorescence assay was used to assess parasite growth. Each compound was tested in duplicate with two biological replicates (n = 4). Negative controls comprised an equivalent volume of DMSO (equivalent of 1% v/v) to normalise the growth data. Data points >100% growth and <0% growth were tabulated as 100% and 0%, respectively. Some compounds were not tested in all parasite lines as there was insufficient material remaining.

The subject of experiment [2] is T. evansi bloodstream form. Nature of the experiment: Initial screen, T. evansi bloodstream form, Alamar Blue. Format: cell-based, Trypanosoma evansi. Particulars: Trypanosoma evansi; for activity at 1 µM: initial screen; for inhibition of growth at 1 µM: read-out: initial hit T.e. How it is done: (§3) 634 compounds from the PhytoQuest Phytopure temperate plant natural product library were screened for growth inhibitory activity against L. mexicana axenic amastigotes, T. brucei bloodstream form, intraerythrocytic asexual P. falciparum (at 2 μM) and T. evansi bloodstream form parasites (at 1 μM). […] Our initial hits were defined as reducing growth of the parasite by ≥50%.
(§4) L. mexicana strain MNYC/BZ/62/M379 and L. donovani strain LdBOB (a clonal line from strain MHOM/SD/62/1S-CL2) were maintained in vitro in the procyclic promastigote stage. Parasites were cultivated at 26 °C in Schneider’s medium (Gibco) pH 7.0 containing 10% FBS, 100 U/mL penicillin (Lonza) and 100 μg/mL streptomycin (Lonza) as previously described. Differentiation into axenic amastigotes was performed as described previously. Briefly, axenic amastigotes were cultivated at 32 °C in Schneider’s medium pH 5.5 containing 10% FBS, 100 U/mL penicillin (Lonza) and 100 μg/mL streptomycin (Lonza). Bloodstream form T. brucei brucei strain Lister 427 and T. evansi strain Antat 3/3 [59] were maintained in vitro at 37 °C with 5% (v/v) CO2 in HMI-11 medium supplemented with 10% FBS, as described elsewhere. Intraerythrocytic cultures of P. falciparum Dd2^Luc strain [62] were maintained at 37 °C in a 1% O2:3% CO2:96% N2 atmosphere in RPMI-1640 containing 37.5 mM HEPES, 5 mM NaOH, 10 mM D-glucose, 2 mM L-glutamine, 100 μM hypoxanthine, […] gentamicin sulfate, 5% human serum and 5% albumax-II and 2% haematocrit erythrocytes. When required, cultures were synchronised to ring stages using the sorbitol lysis method. Preliminary cytotoxicity screening was assessed using HepG2 cells. These cells were maintained in vitro at 37 °C with 5% (v/v) CO2 in DMEM (Sigma) pH 7 supplemented with 10% FBS, 100 U/mL penicillin (Lonza) and 100 μg/mL streptomycin (Lonza), as previously described. The human monocyte cell line THP-1 [68] was maintained in vitro by culturing at 37 °C with 5% (v/v) CO2 in complete RPMI medium (Dutch modified RPMI-1640 (Gibco) containing 10% FBS and 2 mM L-glutamine (Gibco)). Differentiation of THP-1 cells into macrophages was performed by seeding 2.5 × 10^5 cells/mL in complete RPMI media, supplemented with 20 ng/mL phorbol 12-myristate 13-acetate (PMA), followed by incubation at 37 °C with 5% (v/v) CO2 for 24 h.
as §2, with “The” for “The PhytoQuest Phytopure library is a commercially available collection of purified compounds isolated predominantly from temperate zone plants, with structures confirmed by NMR and mass spectrometry. The”

In experiment [3] the test system is P. falciparum Dd2Luc intraerythrocytic trophozoites. As to the kind of experiment: Initial screen, intraerythrocytic P. falciparum, Malaria SYBR-Green I fluorescence assay. The format is cell-based, Plasmodium falciparum. Particulars: for activity at 2 µM: Plasmodium falciparum. The procedure: as §1, §2
The subject of experiment [4] is T. evansi. Nature of the experiment: Concentration-response EC50, T. evansi. The format is cell-based. Particulars: Trypanosoma evansi, 48 h, read-out: T. evansi EC50.
Experiment [5] deals with L. mexicana axenic amastigotes. Nature of the experiment: Concentration-response EC50, L. mexicana axenic amastigotes (WT). The format is cell-based, Leishmania mexicana. To be noted: Leishmania mexicana.
Text: Initial hits from the parasite panel screen were taken forward in log concentration versus normalised response assays to estimate the half maximal effective concentration (EC50) in hit species as well as the half maximal cytotoxic concentrations (CC50) in the human hepatoma cell line HepG2 as a preliminary test for selectivity. Using CC50/EC50 to define the selectivity index (SI), the selectivity for each compound in a defined species compared to a human cell line was estimated and compared to the EC50 (Figure 3).
EC50 values were determined by serial two-fold dilution of each compound in 96 well plates. Culture conditions and viability assays were as stated for the initial screen, with some exceptions. L. mexicana and L. donovani axenic amastigotes were seeded at 2 × 10^6 cell/s mL, T. brucei and T. evansi were seeded at 2 × 10^5 cells/mL. For cytotoxicity studies, HepG2 cells were seeded at 1 × 10^5 cells/mL, incubated for 48 h and viability was assessed using the Alamar Blue assay [66, 67]. […] Normalised growth and viability data (compared to untreated controls) were plotted against Log10 concentration to estimate EC50 in GraphPad (Prism v6).
Experiment [6] relates to 700022-resistant line of L. mexicana (r22) axenic amastigotes. As to the kind of experiment: EC50 in 700022-resistant L. mexicana (r22) axenic amastigotes. Format: cell-based, Leishmania mexicana. Particulars: for r22 28 weeks RI (resistance index, EC50 in r22/EC50 in WT): 28 weeks of 700022 selection pressure; for pEC50: Leishmania mexicana, read-out: r22 28 weeks EC50, r22 after 28 weeks of 700022 selection pressure. The procedure:
A 700022-resistant line of L. mexicana (r22) was generated using a previously reported method (Figure S3). […] All leishmanicidal sterols identified were assayed against r22 after 8 weeks of 700022 pressure and cross-resistance was found against all four compounds, each with a similar resistance index of between 4–5 (Figure 6c). Following 28 weeks of selection, the morphology of the r22 promastigotes was compared to that of WT (Figure 6d). […] The body area of both promastigotes and amastigotes was also assessed, noting a small (c 20%) decrease in the body area of r22 parasites compared to WT strains (Figure S3).
Figure 6 Comparison between wildtype and 700022-resistant (r22) L. mexicana cell lines. Log concentration versus normalised (compared to untreated control) growth curves for wildtype (WT) and corresponding 700022-selected (r22) L. mexicana (a) promastigotes and (b) axenic amastigotes. Error bars represent upper and lower limits of the StDev (n = 9). […] The resistance index (EC50 in r22/EC50 in WT) are shown for each compound. (d) Scanning electron micrographs of WT and r22 promastigotes illustrating the shortened flagellum in r22 parasites. (e) Analysis of flagellum length in WT and r22 promastigotes (n = 287 of each strain) reported using a box and whisker plot (boxes represents the 25–75th percent distribution with the mean as a horizontal line, whiskers represent the distribution of all values) with a statistically significant difference (Mann–Whitney U test, p-value < 2.2 × 10^−16). […] Error bars represent upper and lower limits of the StDev (n = 9). […] The resistance index (EC50 in r22/EC50 in WT) are shown for each compound. TEXT PRINTED IN THE PICTURE: (c) 700022: 4.1 | (c) 700107: 4.1 | (c) 700136: 5.3 | (c) 700240: 5.3 | (f) 700022: 42.1 | (f) Milt: 17.9 | (f) Pent: 0.75 | (f) AmpB: 1.22 DOUBTS OF THE COPYIST ABOUT THIS PICTURE: Panels c and f: the numbers printed above the bar pairs have no measure or unit printed with them in the picture.
L. mexicana parasites were grown in increasing concentrations of 700022 in a stepwise manner, as previously described. […] A dose response assay of the newly selected promastigotes was completed as stated above, with the exception of the seeding density of 1 × 10^5 cells/mL. At this point, the drug pressure was increased to the concentration of the new EC50 value.

Experiment [7] relates to T. brucei bloodstream form. As to the kind of experiment: Initial screen, T. brucei bloodstream form, Alamar Blue. Format: cell-based, Trypanosoma brucei brucei. Particulars: initial screen; for activity at 2 µM: Trypanosoma brucei. How it is done:
as §3, §4
as §2, with “The” for “The PhytoQuest Phytopure library is a commercially available collection of purified compounds isolated predominantly from temperate zone plants, with structures confirmed by NMR and mass spectrometry. The”
(In general: Resazurin is reduced to fluorescent resorufin, in cell work by metabolically active cells.)

[8] abbreviates: read-out: % growth L. mexicana, mean % growth compared to a normalised control with same concentration of DMSO solvent, initial screen.
Setting [9] is: mean % growth compared to a normalised control with same concentration of DMSO solvent, read-out: % growth T. evansi.
[10] abbreviates: 48 h, read-out: %growth P. falciparum, mean % growth compared to a normalised control with same concentration of DMSO solvent, initial screen.
Where [11] appears, read: mean % growth compared to a normalised control with same concentration of DMSO solvent, initial screen.

The results in this text go back to article PMC7998250, “Temperate Zone Plant Natural Products—A Novel Resource for Activity against Tropical Parasitic Diseases” (Pharmaceuticals, 2021).

pEC50: −log10 of the molar value. Like-named read-outs stand apart in the source and are kept apart here. A value given as a limit tells only on which side of the number the result lay.

By pEC50 is commonly meant the EC50 on a negative log10 scale, so that one unit is a factor of ten. `CC(C)=CCc1c(O)cc2oc(-c3ccc(O)c(O)c3)c(O)c(=O)c2c1O` [Compound 700326]: the results for the activity at 2 µM in experiment [1] (setting [8]) and in experiment [3] (setting [10]) were 27% and 63.1%, respectively. In addition, in experiment [2] (setting [9]), the activity at 1 µM was 34.7%. The inhibition of growth at 1 µM in experiment [2] (1 μM, x = initial hit) was over 50%. For the same molecule, the pEC50 in experiment [4] (bloodstream form) is 5.74.

Regarding `N=C(N)c1ccc(OCCCCCOc2ccc(C(=N)N)cc2)cc1` [Pentamidine, reference compound], the pEC50 in experiment [5] (L. mexicana WT axenic amastigotes, read-out: WT EC50) is 5.17. In experiment [6], the “r22 28 weeks RI (resistance index, EC50 in r22/EC50 in WT)” value was 0.75 and the pEC50 was 5.29.

`C[C@@H]1[C@H](O)[C@@H](C)/C=C/C=C/C=C/C=C/C=C/C=C/C=C/[C@H](O[C@@H]2O[C@H](C)[C@@H](O)[C@H](N)[C@@H]2O)C[C@@H]2O[C@](O)(C[C@@H](O)C[C@@H](O)[C@H](O)CC[C@@H](O)C[C@@H](O)CC(=O)O[C@H]1C)C[C@H](O)[C@H]2C(=O)O` [Amphotericin B, reference compound]: the negative-log EC50 (pEC50) in experiment [6] is 6.55.

Turning to `CC(=O)OC1C(O)C(C)OC(OC2C(OC(=O)C3CC[C@@H]4[C@H](C3)OC3(CC(OC(=O)/C=C/c5ccccc5)[C@@H](C)CO3)C43CO3)OC(CO)C(O)C2OC(C)=O)C1O` (stereo partly shown) [Compound 700063], the “decrease of L. mexicana survival” value in experiment [1] was about 70%. In addition, the “% growth L. mexicana” value in experiment [1] (setting [11]) is recorded as 70.5%. The “% growth T. b. brucei” value in experiment [7] (mean % growth compared to a normalised control with same concentration of DMSO solvent) is listed as 95.6%. Moreover, in experiment [2] (read-out: % growth T. evansi, mean % growth compared to a normalised control with same concentration of DMSO solvent), the activity at 1 µM was 44.5%. The inhibition of growth at 1 µM in experiment [2] is over 50%. Besides, in experiment [3] (2 μM), the “activity against P. falciparum in screen” value is listed as “neither 700014 or 700063 showed activity against P. falciparum”. For the same molecule, the “%growth P. falciparum” value in experiment [3] (setting [11]) worked out at 104.8%. In experiment [4], the negative-log EC50 (pEC50) is under 5.00.

For `CC1=CC(CC(C)C2CCC3(C)C4=CCC5C(C)(C)C(=O)CCC5(C)C4CCC23C)OC1=O` (stereo not shown) [Compound 700016], the “decrease of L. mexicana survival” value in experiment [1] is “more than 50%”. Further, the activity at 2 µM was 47.1% in experiment [1] (setting [8]); 75.7% in experiment [7] (mean % growth compared to a normalised control with same concentration of DMSO solvent, read-out: % growth T. b. brucei); 104% in experiment [3] (setting [10]). Further, the activity at 1 µM in experiment [2] (setting [9]) was determined as 40.5%. In experiment [2] (1 μM, x = initial hit), the inhibition of growth at 1 µM was over 50%. Moreover, in experiment [4] (bloodstream form), the negative-log EC50 (pEC50) is under 5.52.

For the molecule `CCCCCCCCCCCCCCCCOP(=O)([O-])OCC[N+](C)(C)C` [Miltefosine, reference compound], the pEC50 was 5.96 in experiment [5] (read-out: WT EC50, L. mexicana WT axenic amastigotes) and 4.70 in experiment [6]. For the same molecule, the “r22 28 weeks RI (resistance index, EC50 in r22/EC50 in WT)” value in experiment [6] is recorded as 17.9.

On to `CC(C)c1cc(CCC2C(=O)CCCC2(C)C)c(O)cc1O` (stereo not shown) [Compound 700454], for which the activity at 2 µM in experiment [1] (read-out: mean % growth, L. mexicana, initial screen, compared to a normalised control with same concentration of DMSO solvent) is 47.9%; in experiment [7] (compared to a normalised control with same concentration of DMSO solvent, read-out: mean % growth, T. b. brucei) it was 77.3%; in experiment [3] (48 h, read-out: mean % growth, P. falciparum, initial screen, compared to a normalised control with same concentration of DMSO solvent), 95.4%. In addition, the activity at 1 µM in experiment [2] (compared to a normalised control with same concentration of DMSO solvent, read-out: mean % growth, T. evansi) is 43.7%. In addition, the inhibition of growth at 1 µM in experiment [2] (1 μM, x = initial hit) is over 50%. For the same molecule, the “reduction of P. falciparum growth” value in experiment [3] (2 μM, 48 h, Dd2Luc) stood at 5%. The pEC50 in experiment [4] (bloodstream form) is 5.48.
